According to PubChem BioAssay AID1918948 (Molecular Pharmacology Branch, DTP, NCI, 2023):
Values joined by “and” are separate entries in the source; they are usually repeats but may differ in a detail not shown here. Equal entries are not always repeated.

Test system: K-562 leukemia growth, % test/control
Experiment: Anticancer human tumor K-562 cell line growth inhibition;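 also: spheroids exposed to compounds for 7 days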;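 as to viability, T/C: 100% = DMSO vehicle wells and lower values mean fewer viable cells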
Settings: spheroids with HUVEC and MSC; for viability, T/C: stronger effect = lower value
How it was run: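 Multicellular complex spheroids of tumor cells with human endothelial cells (HUVEC) and mesenchymal stem cells; the LSD1 inhibitor iadademstat was combined with standard-of-care or investigational agents. Top concentration at or near clinical Cmax, half-log dilutions; final DMSO ≤0.25%.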

[1] = curve of first compound, second compound 0.1 µM
[2] = curve of first compound, second compound 0.316 µM
[3] = curve of first compound, second compound 1 µM
[4] = curve of first compound, second compound 3.16 µM
[5] = curve of first compound, second compound 10 µM
[6] = second compound 0.1 µM, first compound 0.00949 µM
[7] = second compound 0.1 µM, first compound 0.03 µM
[8] = second compound 0.1 µM, first compound 0.0949 µM
[9] = second compound 0.1 µM, first compound 0.3 µM
[10] = second compound 0.316 µM, first compound 0.00949 µM
[11] = second compound 0.316 µM, first compound 0.03 µM
[12] = second compound 0.316 µM, first compound 0.0949 µM
[13] = second compound 0.316 µM, first compound 0.3 µM
[14] = second compound 1 µM, first compound 0.00949 µM
[15] = second compound 1 µM, first compound 0.03 µM
[16] = second compound 1 µM, first compound 0.0949 µM
[17] = second compound 1 µM, first compound 0.3 µM
[18] = second compound 3.16 µM, first compound 0.00949 µM
[19] = second compound 3.16 µM, first compound 0.03 µM
[20] = second compound 3.16 µM, first compound 0.0949 µM
[21] = second compound 3.16 µM, first compound 0.3 µM
[22] = second compound 10 µM, first compound 0.00949 µM
[23] = second compound 10 µM, first compound 0.03 µM
[24] = second compound 10 µM, first compound 0.0949 µM
[25] = second compound 10 µM, first compound 0.3 µM
[26] = second compound 0.1 µM, first compound 0.949 µM
[27] = second compound 0.1 µM, first compound 3 µM
[28] = second compound 0.316 µM, first compound 0.949 µM
[29] = second compound 0.316 µM, first compound 3 µM
[30] = second compound 1 µM, first compound 0.949 µM
[31] = second compound 1 µM, first compound 3 µM
[32] = second compound 3.16 µM, first compound 0.949 µM
[33] = second compound 3.16 µM, first compound 3 µM
[34] = second compound 10 µM, first compound 0.949 µM
[35] = second compound 10 µM, first compound 3 µM

Compound `CC(C)c1c(-c2ccccc2)nc2c(C#N)c[nH]n2c1=O` + NC1CC1c1ccc(-c2cccc(O)c2)cc1 has an IC50 [1] greater than 10000 nM, an IC50 [2] greater than 10000 nM and an IC50 [3] greater than 10000 nM. The IC50 [4] was greater than 10000 nM, the IC50 [5] was greater than 10000 nM and the viability, T/C (second compound 0.1 µM, first compound 0.0316 µM) was 105%. It also gave a viability, T/C (second compound 0.1 µM, first compound 0.1 µM) of 108%, a viability, T/C (second compound 0.1 µM, first compound 0.316 µM) of 102% and a viability, T/C (second compound 0.1 µM, first compound 1 µM) of 107%. The viability, T/C (second compound 0.1 µM, first compound 3.16 µM) was 111%, the viability, T/C (second compound 0.1 µM, first compound 10 µM) was 106% and the viability, T/C (second compound 0.316 µM, first compound 0.0316 µM) was 102%. For the same compound, the viability, T/C (second compound 0.316 µM, first compound 0.1 µM) was 103%, the viability, T/C (second compound 0.316 µM, first compound 0.316 µM) was 102% and the viability, T/C (second compound 0.316 µM, first compound 1 µM) was 105%. The viability, T/C (second compound 0.316 µM, first compound 3.16 µM) was 106%, the viability, T/C (second compound 0.316 µM, first compound 10 µM) was 98.9% and the viability, T/C (second compound 1 µM, first compound 0.0316 µM) was 97.8%. The viability, T/C (second compound 1 µM, first compound 0.1 µM) was 103%, the viability, T/C (second compound 1 µM, first compound 0.316 µM) was 95.5% and the viability, T/C (second compound 1 µM, first compound 1 µM) was 101%. For the same compound, the viability, T/C (second compound 1 µM, first compound 3.16 µM) was 99.4%, the viability, T/C (second compound 1 µM, first compound 10 µM) was 96.4% and the viability, T/C (second compound 3.16 µM, first compound 0.0316 µM) was 102%. It also gave a viability, T/C (second compound 3.16 µM, first compound 0.1 µM) of 97.7%, a viability, T/C (second compound 3.16 µM, first compound 0.316 µM) of 100% and a viability, T/C (second compound 3.16 µM, first compound 1 µM) of 97.2%. The viability, T/C (second compound 3.16 µM, first compound 3.16 µM) was 99.2%, the viability, T/C (second compound 3.16 µM, first compound 10 µM) was 95.9% and the viability, T/C (second compound 10 µM, first compound 0.0316 µM) was 99.4%. For the same compound, the viability, T/C (second compound 10 µM, first compound 0.1 µM) was 96.1%, the viability, T/C (second compound 10 µM, first compound 0.316 µM) was 96.5% and the viability, T/C (second compound 10 µM, first compound 1 µM) was 98.3%. For the same compound, the viability, T/C (second compound 10 µM, first compound 3.16 µM) was 98.3% and the viability, T/C (second compound 10 µM, first compound 10 µM) was 92%.

For `Nc1ccn(C2OC(CO)C(O)C2(F)F)c(=O)n1` (configuration not stated) + NC1CCC(NC2CC2c2ccccc2)CC1, the IC50 [1] was less than 0.949 nM, the IC50 [2] was less than 0.949 nM and the IC50 [3] was less than 0.949 nM. It also gave an IC50 [4] of less than 0.949 nM, an IC50 [5] of less than 0.949 nM and a viability, T/C (second compound 0.1 µM, first compound 0.000949 µM) of 24%. It also gave a viability, T/C (second compound 0.1 µM, first compound 0.003 µM) of 6.98%, a viability, T/C [6] of 5.69% and a viability, T/C [7] of 5.94%. For the same compound, the viability, T/C [8] was 6.11%, the viability, T/C [9] was 5.96% and the viability, T/C (second compound 0.316 µM, first compound 0.000949 µM) was 25.4%. The viability, T/C (second compound 0.316 µM, first compound 0.003 µM) was 7.37%, the viability, T/C [10] was 5.62% and the viability, T/C [11] was 5.72%. It also gave a viability, T/C [12] of 7.48%, a viability, T/C [13] of 6.94% and a viability, T/C (second compound 1 µM, first compound 0.000949 µM) of 27.7%. The viability, T/C (second compound 1 µM, first compound 0.003 µM) was 6.4%, the viability, T/C [14] was 5.72% and the viability, T/C [15] was 6.07%. The viability, T/C [16] was 6%, the viability, T/C [17] was 6% and the viability, T/C (second compound 3.16 µM, first compound 0.000949 µM) was 20.3%. It also gave a viability, T/C (second compound 3.16 µM, first compound 0.003 µM) of 6.36%, a viability, T/C [18] of 6.71% and a viability, T/C [19] of 5.11%. The viability, T/C [20] was 5.57%, the viability, T/C [21] was 5.77% and the viability, T/C (second compound 10 µM, first compound 0.000949 µM) was 12.7%. It also gave a viability, T/C (second compound 10 µM, first compound 0.003 µM) of 5.54%, a viability, T/C [22] of 5.5% and a viability, T/C [23] of 4.88%. It also gave a viability, T/C [24] of 5.09% and a viability, T/C [25] of 5.72%.

In the case of `COc1cc(C2c3cc4c(cc3C(OC3OC5COC(C)OC5C(O)C3O)C3COC(=O)C23)OCO4)cc(OC)c1O` (configuration not stated) + NC1CCC(NC2CC2c2ccccc2)CC1, the IC50 [1] is reported as 24.2 nM, the IC50 [2] is reported as 25.9 nM and the IC50 [3] is reported as 27 nM. It also gave an IC50 [4] of 27.5 nM, an IC50 [5] of 26.8 nM and a viability, T/C [6] of 86.3%. It also gave a viability, T/C [7] of 34.6%, a viability, T/C [8] of 26.9% and a viability, T/C [9] of 35.2%. For the same compound, the viability, T/C [26] was 13.8%, the viability, T/C [27] was 3.12% and the viability, T/C [10] was 87.3%. For the same compound, the viability, T/C [11] was 36%, the viability, T/C [12] was 28.2% and the viability, T/C [13] was 36.1%. The viability, T/C [28] was 14%, the viability, T/C [29] was 3.11% and the viability, T/C [14] was 86.8%. It also gave a viability, T/C [15] of 37.7%, a viability, T/C [16] of 28.6% and a viability, T/C [17] of 35.5%. The viability, T/C [30] was 12.9%, the viability, T/C [31] was 3.58% and the viability, T/C [18] was 87.5%. For the same compound, the viability, T/C [19] was 37%, the viability, T/C [20] was 30.1% and the viability, T/C [21] was 33.8%. The viability, T/C [32] was 12.7%, the viability, T/C [33] was 3.14% and the viability, T/C [22] was 83.2%. The viability, T/C [23] was 38.2%, the viability, T/C [24] was 30.4% and the viability, T/C [25] was 26.7%. The viability, T/C [34] was 9.22% and the viability, T/C [35] was 2.85%.

With `O=C(C=Cn1cnc(-c2cc(C(F)(F)F)cc(C(F)(F)F)c2)n1)NNc1cnccn1` the viability, T/C (compound 0.00316 µM) was 102% and 101%, the viability, T/C (compound 0.01 µM) was 103% and the viability, T/C (compound 0.0316 µM) was 92.1% and 101%. The viability, T/C (compound 0.1 µM) was 37.1% and 58.4%, the viability, T/C (compound 0.316 µM) was 4.12% and 9.78% and the viability, T/C (compound 1 µM) was 1.22% and 1.15%. For the same compound, the IC50 (curve of compound) was 76.3 nM and 123 nM.

Compound `NS(=O)(=O)OCC1CC(n2ccc3c(NC4CCc5ccccc54)ncnc32)CC1O` (configuration not stated) + NC1CCC(NC2CC2c2ccccc2)CC1 has an IC50 [1] of 17.1 nM, an IC50 [2] of 17 nM and an IC50 [3] of 14.9 nM. For the same compound, the IC50 [4] was 10.9 nM, the IC50 [5] was less than 9.49 nM and the viability, T/C [6] was 58.9%. For the same compound, the viability, T/C [7] was 36%, the viability, T/C [8] was 40.5% and the viability, T/C [9] was 27.8%. For the same compound, the viability, T/C [26] was 15.8%, the viability, T/C [27] was 8.88% and the viability, T/C [10] was 58.9%. The viability, T/C [11] was 36.4%, the viability, T/C [12] was 40% and the viability, T/C [13] was 21.4%. The viability, T/C [28] was 13.9%, the viability, T/C [29] was 9.49% and the viability, T/C [14] was 56.7%. It also gave a viability, T/C [15] of 36.8%, a viability, T/C [16] of 37% and a viability, T/C [17] of 24.7%. It also gave a viability, T/C [30] of 11.8%, a viability, T/C [31] of 8.79% and a viability, T/C [18] of 53.5%. For the same compound, the viability, T/C [19] was 33.4%, the viability, T/C [20] was 33.1% and the viability, T/C [21] was 18.8%. It also gave a viability, T/C [32] of 8.53%, a viability, T/C [33] of 5.87% and a viability, T/C [22] of 42%. It also gave a viability, T/C [23] of 22.7%, a viability, T/C [24] of 17.9% and a viability, T/C [25] of 8.46%. It also gave a viability, T/C [34] of 3.21% and a viability, T/C [35] of 1.65%.
